{
  "source": "patent US12410178B2",
  "about": "“Small cationic ortho-5,15-di-heteroaryl-porphyrin derivatives and their applications in photoinactivation of microorganisms” (UNIVERSIDADE DE COIMBRA, priority 2019, dated 2025)",
  "assay": "Optical absorption, molar absorption coefficient",
  "type": "physicochemical",
  "settings": "water with 9% dimethylsulfoxide",
  "procedure": "Optical Absorption: The ultra-violet visible optical absorption (UV-vis) spectra used in the control of the synthesis were recorded on Hitachi U-2001 or Shimadzu 2100 spectrophotometers using spectroscopic grade solvents. The UV-Vis-NIR optical absorption was recorded with an Agilent Cary5000 UV-Vis-NIR Spectrophotometer in the determination of the molar absorption coefficient and with Shimadzu UV-2100 spectrometer in routine measurements. The absorption spectra were recorded in the wavelengths from 300 nm up to 800 nm. Molar absorption coefficients were determined by using Beer-Lambert's law. For each compound, a minimum of 6 solutions were prepared in concentrations ranging from 10^−7 to 10^−6 M, giving absorbance values between 0.1 and 1.\nThe absorptivities of the compounds and other photophysical and photobiological properties were measured as described in the Materials and Methods. […] This is indicative of negligible aggregation between the molecules, which exist mostly as monomers at the studied concentrations in the selected solvents. […] The same table also presents the fluorescence quantum yield (ΦF), singlet oxygen generation (ΦΔ) and the logarithm of the n-octanol:water partition coefficient (log POW). […]",
  "data": [
    {"compound": "Cn1cc[n+](C)c1C1=C2C=CC3=[N+]2[Zn@]24[n]5c(ccc51)C=C1C=CC(=[N+]12)C(c1n(C)cc[n+]1C)=c1ccc([n]14)=C3", "note": "[Formula (IIa), 5,15-bis(1,3-dimethylimidazol-2-yl)porphyrinate zinc (II) diiodide]", "values": [
      {"measurement": "ε(λ)/10^3 molar absorption coefficient", "setting": "at 407 nm", "value": ">20 10^3 M^−1 cm^−1"},
      {"measurement": "λ (most intense absorption band)", "value": 407, "unit": "nm"}
    ]}
  ]
}
